Reference: patent US20250009817A1, “IMMUNOMODULATING COMPOSITION CONTAINING GASSERI” (THE CATHOLIC UNIVERSITY OF KOREA INDUSTRY-ACADEMIC …, priority 2023, published 2025)

What was measured:
[1] = test system: IL-17, IL-10, and IFN-γ; assay: IL-17, IL-10 and IFN-γ in hPBMC under T cell stimulation conditions (anti-CD3), ELISA; type: cell-based, human; conditions: anti-CD3 2 μg/ml, 24 hours, FK506 1 nM, microbiomes 10 μg/ml each
Experimental: (§1) It was confirmed whether the combination of FK506 and the microbiomes of the present inention regulated IL-17 and IL-10 in human peripheral blood mononuclear cells (hPBMCs) under T cell stimulation conditions. Specifically, PBMCs isolated from human peripheral blood were treated with anti-CD3 at a concentration of 2 μg/ml to activate T cells. Thereafter, the PBMCs were treated with FK506 alone (1 nM) and a combination of FK506 (1 nM) and L. gasseri (10 μg/ml); L. gasseri (10 μg/ml) and L. acidophilus (10 μg/ml); two microbiomes (each 10 μg/ml) and zinc (50 μM); or two microbiomes (each 10 μg/ml), zinc (50 μM), vitamin B9, and vitamin B12 (B9+B12 20 μM) and cultured for 24 hours. After completion of the culture, the cell culture medium was obtained, and the amounts of IL-17 and IL-10 in the culture medium were measured by ELISA.

[2] = test system: IL-17 and IL-10; assay: IL-17 and IL-10 in culture medium under allo response conditions, ELISA; type: cell-based, human; conditions: hPBMCs, 72 hours, FK506 1 nM, microbiomes 10 μg/ml each, vs Vehicle group
Experimental: Specifically, the proliferation of allo response T cells was confirmed for FK506 alone (1 nM) and a combination of FK506 (1 nM) and L. gasseri (10 μg/ml); L. gasseri (10 μg/ml) and L. acidophilus (10 μg/ml); two microbiomes (each 10 μg/ml) and zinc (50 μM); or two microbiomes (each 10 μg/ml), zinc (50 μM), vitamin B9, and vitamin B12 (B9+B12 20 μM). Specifically, different human peripheral blood mononuclear cells (hPBMCs) were inoculated at a ratio of 1:1 (each concentration of 1×10^5 cells) on a 96 well plate coated with a concentration of anti CD3 0.5 μg/ml, treated with the combination in hPBMCs in which allo conditions were induced, and then cultured for 72 hours. Thereafter, 10 μl of CCK8 was treated to each well and reacted for 4 hours, and then the cell proliferation response was measured by absorbance at 450 nm. As a control group, a Vehicle group in which the active ingredient was replaced with a solvent was used.
It was confirmed whether the combination of FK506 and the microbiome of the present invention regulated the expression of inflammation-related factors under allo response conditions. Specifically, a culture medium of each cell cultured in Example 7-1 was obtained, and the amounts of IL-17 as an inflammatory factor and IL-10 as an inflammation regulator in the culture medium were analyzed by ELISA.

[3] = test system: acute graft-versus-host disease (aGVHD); assay: Disease activity, body weight and probability of survival in acute graft-versus-host disease animal model; type: in vivo, mouse; conditions: aGVHD mice, FK506 5 mg/kg, microbiome 400 mg/kg, oral once daily 4 weeks
Experimental: Specifically, in order to fabricate an aGVHD model, a responder mouse Balb/c (H-2k/d) was subjected to total body irradiation (TBI) of 690 cGy, bone marrow stem cells and splenocytes were isolated from the femur and tibia of a donor mouse C57BL/6 (H-2k/b), and then 5×10^6 bone marrow (BM) stem cells and 5×10^6 splenocytes were transplanted into the responder mouse Balb/c (H-2k/d). Thereafter, after the occurrence of aGVHD, 5 mg/kg of FK506 and 400 mg/kg each of Lactobacillus rhamnosus (LR) or Lactobacillus paracasei (LP) were administered orally once daily for 4 weeks. Disease activity, body weight, and probability of survival of mice in each group were measured once a week to confirm whether the disease activity was suppressed (FIG. 5). As control groups, a syngenic (syn) group transplanted with syngenic cells; a vehicle group, in which aGVHD was induced and saline was injected; and groups administered with FK506, Lactobacillus rhamnosus, and Lactobacillus paracasei alone were used.

[4] = test system: CD4+T cells; assay: Alloresponse (T cell proliferation) in allogeneic cell model, 3H thymidine incorporation; type: cell-based, mouse; conditions: allogeneic co-culture; FK506 0.3 mg/ml; microbiome 100 μg/ml in combination; FIG. 1
Experimental: To confirm an effect of the combination of FK506 and a microbiome of the present invention on transplantation rejection, an allogeneic cell model was used. Specifically, in a 96 well plate, 2×10^5 CD4+T cells from a normal responder (Bclb/c) per well were mixed and co-cultured with 2×10^5 splenocytes from which T cells derived from an irradiated responder (syngenic) or donor (C57BL/6, stimulator, allogeneic) were removed. During co-culture, an allogeneic model was treated with five types of Lactobacillus bacteria, Lactobacillus acidophilus (LA), L. reuteri (LRe), L. rhamnosus (LRh), L. paracasei (LPC) or L. casei (LC) alone at 1, 10, and 100 μg/ml, or administered in combination with 0.3 mg/ml of FK506. As a control group, a syngenic transplantation group (Syn group) and an allogeneic transplantation group (Allo group) were used. Thereafter, in order to confirm alloresponses in mice of each group, T cell proliferation responses (alloresponses) were confirmed in the cultured cells using a 3H thymidine incorporation method.

[5] = test system: Treg; assay: Treg expression in hPBMC under T cell stimulation conditions, flow cytometry; type: cell-based, human; conditions: anti-CD3 2 μg/ml, 24 hours, FK506 1 nM, microbiomes 10 μg/ml each, zinc 50 μM, B9+B12 20 μM
Experimental: as §1
It was confirmed whether the combination of FK506 and the microbiomes of the present invention regulated the expression of Treg reduced by treatment with the immunosuppressant. Specifically, cells in each group of Example 8-1 were obtained, and expression of Treg was confirmed by flow cytometry.

[6] = test system: Breg and B10 cells, and CD19-positive and IL-10-positive cells; assay: Breg, B10 and CD19-positive IL-10-positive cells in LPS-stimulated hPBMC, flow cytometry; type: cell-based, human; conditions: LPS 100 ng/ml, 24 hours
Experimental: The immune cell regulatory effect of the combination of FK506 and the microbiomes of the present invention in hPBMC according to LPS was confirmed. Specifically, PBMCs isolated from human peripheral […] were treated with LPS at a concentration of 100 ng/ml to activate immune cells. Thereafter, FK506 alone; or a combination of FK506 and L. gasseri; L. gasseri and L. acidophilus; microbiomes and zinc; or microbiomes, zinc, vitamin B9, and vitamin B12 was treated and cultured for 24 hours. After completion of culture, cells in each group were obtained, and the expression of immune B cells Breg and B10 cells, and CD19-positive and IL-10-positive cells was confirmed using flow cytometry.

C=CC[C@@H]1/C=C(\C)C[C@H](C)C[C@H](OC)[C@H]2O[C@@](O)(C(=O)C(=O)N3CCCC[C@H]3C(=O)O[C@H](/C(C)=C/[C@@H]3CC[C@@H](O)[C@H](OC)C3)[C@H](C)[C@@H](O)CC1=O)[C@H](C)C[C@@H]2OC.O [FK506, Tacrolimus]
amount of IFN-γ ([1]; vs Vehicle group): significantly decreased
amount of IL-10 ([1]; zinc 50 μM, B9+B12 20 μM): not expressed
expression of IL-10 in the culture medium [2]: significantly decreased
probability of survival ([3]; at the end of the experiment): 60%
body weight ([3]; compared to the vehicle group): increased
disease activity ([3]; compared to the vehicle group): decreased
T cell proliferation (alloresponse) [4]: suppressed
expression of Treg [5]: significantly decreased
expression of B10 [6]: decreased
expression of Breg ([6]; vs Vehicle group): significantly decreased
